Where a name gives a salt, the structure may show the parent alone. A value given as a limit tells only on which side of the number the result lay.

The text below walks through data of patent publication EP3394070B1, “CRYSTALLINE FORMS OF QUINOLONE ANALOGS AND THEIR SALTS” (Senhwa Biosciences, Inc., priority 2015, dated 2017).

The conditions of series [1]: water, 72 h.
Series [2] in a line: Stability (HPLC purity) of acid salts in water, stirred at 42 °C for 3 days. Type of series: physicochemical. Conditions: for Purity % a/a after 3 days (HPLC): in water, stirred at 42 °C for 3 days. As to the method: (§1) Crystalline forms (i.e., salts and free base) of the present invention were analyzed by total area normalization (TAN).
The mixture was stirred at 42 °C for 3 days and each solution was analyzed by HPLC for concentration and purity. Table 11 Solubility and Purity of Acid Addition Salts

The nature of series [3]: Solid-form stability of acid salts stored at elevated temperature (HPLC purity). In kind it is physicochemical. Conditions: for Purity % a/a after 3 days at 80 °C (HPLC): solid form stored at 80 °C. As to the method: as §1
Stability of the acid salts were also tested by storing the salts (solid forms) at an elevated temperature of 45 and 80 °C. Table 12 Stability of Acid Addition Salts

Series [4] in a line: physchem. Particulars: 42 °C, water, thermodynamic from solid.

With `Cc1cnc(CNC(=O)c2c(=O)c3ccc(N4CCCN(C)CC4)nc3n3c2sc2ccccc23)cn1` [HCl], the “Aqueous Solubility (Calculated)” value in series [1] is > 100 mg/mL. The “Starting Purity % a/a (HPLC)” value in series [2] (before the 3 day test (time zero)) was determined as 98.78 % a/a. In addition, the “Purity % a/a after 3 days (HPLC)” value in series [2] amounted to 88.62 % a/a. Further, the “Purity % a/a after 3 days at 45 °C (HPLC)” value in series [3] (solid form stored at 45 °C) is reported as 98.48 % a/a. For the same compound, the “Purity % a/a after 3 days at 80 °C (HPLC)” value in series [3] is 98.71 % a/a.

On to `Cc1cnc(CNC(=O)c2c(=O)c3ccc(N4CCCN(C)CC4)nc3n3c2sc2ccccc23)cn1` [Free Base, 2-(4-Methyl-[1,4]diazepan-1-yl)-5-oxo-5H-7-thia-1,11b-diaza-benzo[c]fluorene-6-carboxylic acid (5-methyl-pyrazin-2-ylmethyl)-amide], for which the solubility (usually the concentration that dissolves in the medium under given conditions) at 3 days in series [4] is < 100 mg/mL. Also, the “Purity % a/a after 3 days (HPLC)” value in series [2] is 99.58 % a/a. For the same compound, in series [3], the “Purity % a/a after 3 days at 80 °C (HPLC)” value is 99.67 % a/a.
